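Results reflect a 48-hour exposure of cells in 96-well plates to compound at five concentrations. GI50 = concentration required for 50% inhibition of growth. Definition used: TGI = concentration required for complete inhibition of growth.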
Legend:
Assay in all cases: inhibition of tumour cell growth, NCI panel, 48 h
HCC-2998 colon = system: HCC-2998 colon
IGROV1 ovarian = system: IGROV1 ovarian
OVCAR-5 ovarian = system: OVCAR-5 ovarian
HCT-15 colon = system: HCT-15 colon
UACC-257 melanoma = system: UACC-257 melanoma
M14 melanoma = system: M14 melanoma
HOP-92 NSCLC = system: HOP-92 NSCLC
HT29 colon = system: HT29 colon
SF-295 CNS = system: SF-295 CNS
LOX IMVI melanoma = system: LOX IMVI melanoma

Compound	TGI (HCC-2998 colon)	TGI (IGROV1 ovarian)	TGI (OVCAR-5 ovarian)	TGI (HCT-15 colon)	TGI (UACC-257 melanoma)	TGI (M14 melanoma)	TGI (HOP-92 NSCLC)	TGI (HT29 colon)	TGI (SF-295 CNS)	TGI (LOX IMVI melanoma)	GI50 (HCC-2998 colon)	GI50 (LOX IMVI melanoma)	GI50 (IGROV1 ovarian)	GI50 (OVCAR-5 ovarian)	GI50 (HCT-15 colon)	GI50 (M14 melanoma)	GI50 (HOP-92 NSCLC)	GI50 (HT29 colon)	GI50 (SF-295 CNS)	GI50 (UACC-257 melanoma)
CC(C)C1N2CCCCC2[C@@H]2c3[nH]c4ccccc4c3CCN12 (some centres undefined)	> 100 µM	> 100 µM	> 100 µM	> 100 µM	> 100 µM	> 100 µM	> 100 µM	> 100 µM	> 100 µM	–	–	–	–	–	–	–	–	–	–	–
Cn1cnc([N+](=O)[O-])c1Sc1nccc(=O)[nH]1	> 100 µM	> 100 µM	> 100 µM	–	> 100 µM	> 100 µM	> 100 µM	> 100 µM	> 100 µM	> 100 µM	–	–	–	–	–	–	–	–	–	–
C/C(=N/Nc1nc(C)cc(=O)[nH]1)C(=O)O	> 100 µM	> 100 µM	> 100 µM	> 100 µM	> 100 µM	> 100 µM	–	> 100 µM	> 100 µM	> 100 µM	–	–	–	–	–	–	–	–	–	–
CC1=C([Se]CC(OC(=O)[C@@H](CO)NC(=O)OC(C)(C)C)C(=O)NCCCCCC(=O)OCc2ccccc2)C(=O)c2ccccc2C1=O (some centres undefined)	3.48 µM	3.37 µM	3.65 µM	3.77 µM	–	3.3 µM	3.32 µM	3.97 µM	1.51 µM	3.72 µM	1.98 µM	1.84 µM	1.79 µM	2.09 µM	1.93 µM	1.79 µM	1.87 µM	2.15 µM	0.321 µM	–
COC1=CC(=O)c2nc(Cl)ccc2C1=O	23.6 µM	3.54 µM	4.88 µM	4.55 µM	3.12 µM	3.52 µM	–	4.74 µM	3.51 µM	2.8 µM	11.4 µM	1.38 µM	1.86 µM	2.06 µM	2.03 µM	1.92 µM	–	2.21 µM	1.69 µM	1.68 µM
CCOC(=O)C(C(O)c1ccc([N+](=O)[O-])cc1)P(=O)(OCC)OCC (centres undefined)	> 100 µM	> 100 µM	> 100 µM	> 100 µM	–	> 100 µM	99.5 µM	> 100 µM	> 100 µM	> 100 µM	–	–	–	–	–	–	–	–	–	–
CC1(C)N=C(N)N=C(N)N1c1cccc(Br)c1	> 45.5 µM	–	–	> 100 µM	> 100 µM	> 100 µM	> 100 µM	> 100 µM	> 38 µM	> 100 µM	0.777 µM	0.146 µM	0.202 µM	–	1.42 µM	0.558 µM	> 100 µM	0.255 µM	0.642 µM	> 92.4 µM
COc1ccc2nc(NC(=O)C(=O)NNC(=O)c3ccncc3)sc2c1	> 100 µM	> 100 µM	–	> 100 µM	> 100 µM	> 100 µM	> 100 µM	> 100 µM	> 100 µM	> 100 µM	–	–	–	–	–	–	–	–	–	–
CCCCCCCC(=O)[O][Hg][CH2]C1COC([CH2][Hg][O]C(=O)CCCCCCC)CO1 (centres undefined)	33.1 µM	38.3 µM	34.3 µM	26.2 µM	–	30 µM	17.1 µM	34.3 µM	36.5 µM	–	18 µM	–	18 µM	20.1 µM	9.54 µM	16.4 µM	5.85 µM	15.6 µM	19 µM	–

Source: PubChem BioAssay (NCI)
